In data set [1] the test system is HIV. The conditions noted are these: cited from earlier work; for REDUCTION IN VIRAL LOAD: patients, drug used on its own.
For data set [2] the following is noted: cited from earlier work.
For data set [3] the following is noted: human, in vivo; cited from earlier work.
Data set [4] has as its system wild-type HIV-1 (111a). As to the kind of experiment: Test 2: syncytium formation in HIV-1 infected CEM cell cultures. It counts as cell-based. The settings on record: CEM cells, 4 days at 37° C., syncytium formation inhibited by 50%; for EC50: Human immunodeficiency virus 1, CCRF-CEM, 96 h. How it is done:
(§1) Two tests were performed: Test 1 was performed using infected blood, while Test 2 used cell cultures.
The results shown in Table 1 for test 2 were obtained by testing cell cultures in accordance with the following procedure.
CEM cells were suspended at approximately 250,000 cells per milliliter of culture medium and infected with wild-type HIV-1 (111a) at approximately 100 times the 50% cell culture infective dose (CCID50) per milliliter. Then 100 μl of the infected cell suspensions were added to 200 μl microtiter plate wells containing 100 μl of an appropriate dilution of the test compounds. After 4 days incubation at 37° C. the cell cultures were microscopically examined for syncytium formation.

The target of data set [5] is T1, viral envelope protein gp120 interaction with the cellular receptor protein CD4 (Human immunodeficiency virus type 1 group M subtype B, UniProt P04578).
T1 construct: viral envelope protein gp120
Briefly: biochemical. The settings on record: for activity in words, compared with AC-1: summary of Table 1, both tests. It counts as binding, HIV. How it is done: as §1
All stocks solutions were made 25 mM in distilled water and tested at same concentrations.
The procedure was carried out as follows: • 1 Plastic plates were coated with cellular receptor protein CD4. • 2 The plates were washed well before adding a predetermined, appropriate quantity of viral envelope protein gp120 for binding to CD4. • 3 To see inhibition by compounds, different concentrations were added a few minutes before adding gp120. • 4 The mixture was incubated at 37° C. for binding. • 5 The plates were then flashed well and bound gp120 was detected by reaction with anti-HIV antibodies, incubated for 12 hours at 4° C. • 6 The amount of antibody bound was detected by adding anti-Human antibodies attached to an enzyme horse raddish peroxidase. • 7 After another incubation and wash, the quantity of the enzyme was measured by adding substrate o-phenyl diamine (OPD). • 8 The colour developed was read at 492 nm. • 9 All incubations took three days for adding different reagents. The percentage of inhibition by compounds, was calculated from the standard curve obtained by using different dilutions of gp120 alone. Test 2

Data set [6] relates to HIV-1. The settings on record: cells protected from HIV infection, cell cultures; cited from earlier work.
The test system of data set [7] is cell growth. The settings on record: cited from earlier work.
Data set [8] has as its system HIV-1. Briefly: Anti-HIV EC50 in cell cultures (benchmark AZT). The conditions noted are these: in vitro. An excerpt:
The antigen Agp120 assay—the virus related antigen—is related to the number of virus particles produced by measuring glycoprotein gp120 in infected cell cultures.
The therapeutic index is selected so as not to damage healthy cells.

In brackets after ≈: the same amount, converted by molar mass.

One may read the EC50 as the concentration giving half of the maximal effect. The term CC50 denotes the concentration that lowers cell viability or growth by half.

Consider `Nc1ccn([C@H]2CC[C@@H](CO)O2)c(=O)n1` [Zalcitabine], for which the “REDUCTION IN VIRAL LOAD” value in data set [1] is 50–90%.
With dextran sulphate, in data set [2] (before entry into the plasma), the “stability after oral intake” value is “degrades after oral intake before entry into the plasma”. Further, in data set [2], the oral absorption result was “poorly absorbed orally”.
As to `Nc1ccn([C@@H]2CS[C@H](CO)O2)c(=O)n1` [Lamivudine], the “SIDE EFFECTS” value in data set [3] is on record as “gastrointestinal”.
`Cc1cn([C@H]2C=C[C@@H](CO)O2)c(=O)[nH]c1=O` [Stavudine]: the “SIDE EFFECTS” value in data set [3] is “peripheral neuropathy”. In data set [1], the “REDUCTION IN VIRAL LOAD” value was 50–90%.
On to `O=C(O)COc1cc(OCC(=O)O)c2cc1C(c1ccc(F)cc1)c1cc(c(OCC(=O)O)cc1OCC(=O)O)C(c1ccc(F)cc1)c1cc(c(OCC(=O)O)cc1OCC(=O)O)C(c1ccc(F)cc1)c1cc(c(OCC(=O)O)cc1OCC(=O)O)C2c1ccc(F)cc1` (centres unmarked) [BC070202A], for which the concentration giving a half-maximal response (EC50) in data set [4] is no less than 20 µg/mL; in data set [5], 75 µM. Moreover, the “% inhibition of gp120/CD4 binding” value was 24% in data set [5] (Conc 12.5 um), 24% in data set [5] (Conc 25 um), 31% in data set [5] (Conc 50 um) and 54% in data set [5] (Conc 100 um). Besides, the “activity in words, compared with AC-1” value in data set [5] is on record as “much less active than the compound AC-1”.
As to `CC(C)CN(C[C@@H](O)[C@H](Cc1ccccc1)NC(=O)O[C@H]1CCOC1)S(=O)(=O)c1ccc(N)cc1` [Amprenavir], in data set [3], the “SIDE EFFECTS” value is reported as “severe rash”. Also, the “REDUCTION IN VIRAL LOAD” value in data set [1] is reported as 99%.
As to `CC(C)(C)NC(=O)[C@@H]1C[C@@H]2CCCC[C@@H]2CN1C[C@@H](O)[C@H](Cc1ccccc1)NC(=O)[C@H](CC(N)=O)NC(=O)c1ccc2ccccc2n1` [Saquinavir], the “SIDE EFFECTS” value in data set [3] was “loose stools, nausea,”. For the same compound, the “REDUCTION IN VIRAL LOAD” value in data set [1] was 99%.
In the case of `Cc1cn([C@H]2C[C@H](N=[N+]=[N-])[C@@H](CO)O2)c(=O)[nH]c1=O` [Zidovudine], in data set [6], the 50% effective concentration (EC50) was roughly 0.016 µM. For the same compound, the CC50 in data set [7] was greater than 1000 µM. The “Therapeutic index (TC50/EC50 ratio)” value in data set [8] is listed as > 62,500. The “REDUCTION IN VIRAL LOAD” value in data set [1] was 50–90%. Moreover, the “benefit in treating HIV-infected individuals” value in data set [1] (used by itself) was “no benefits in treating HIV-infected individuals”.
In the case of `O=C(O)COc1c(O)c2cc(c1O)C(c1ccc(F)cc1)c1cc(c(O)c(OCC(=O)O)c1O)C(c1ccc(F)cc1)c1cc(c(O)c(OCC(=O)O)c1O)C(c1ccc(F)cc1)c1cc(c(O)c(OCC(=O)O)c1O)C2c1ccc(F)cc1` (centres unmarked) [BC130202A], the figures for the half-maximal effective concentration (EC50) in data set [4] and in data set [5] were 10 µg/mL (≈ 8.61 µM) and 5 µM, respectively. For the same compound, the “% inhibition of gp120/CD4 binding” value is 19% in data set [5] (Conc 1.56 um); 32% in data set [5] (Conc 3.125 um); 46% in data set [5] (Conc 6.25 um); 56% in data set [5] (Conc 12.5 um); 70% in data set [5] (Conc 25 um); 82% in data set [5] (Conc 50 um). The “% inhibition of gp120/CD4 binding” value in data set [5] (Conc 100 um) was 90%. Moreover, in data set [5], the “activity in words, compared with AC-1” value was “active”.
As to `Nc1nc(NC2CC2)c2ncn([C@H]3C=C[C@@H](CO)C3)c2n1` [Abacavir], the “REDUCTION IN VIRAL LOAD” value in data set [1] was 50–90%.
In the case of `CC(C)Nc1cccnc1N1CCN(C(=O)c2cc3cc(NS(C)(=O)=O)ccc3[nH]2)CC1` [Delaviridine], the “SIDE EFFECTS” value in data set [3] was “skin reaction”. For the same compound, the “REDUCTION IN VIRAL LOAD” value in data set [1] is 50–90%.
Turning to `CC(C)(C)NC(=O)[C@@H]1CN(Cc2cccnc2)CCN1C[C@@H](O)C[C@@H](Cc1ccccc1)C(=O)N[C@H]1c2ccccc2C[C@H]1O` [Indinavir], the “REDUCTION IN VIRAL LOAD” value in data set [1] is 99%.
In the case of `Cc1ccnc2c1NC(=O)c1cccnc1N2C1CC1` [Nevirapinc], the “SIDE EFFECTS” value in data set [3] is listed as “skin reaction”. The “REDUCTION IN VIRAL LOAD” value in data set [1] was 50–90%.
In the case of “dodecapotassium acetate of p-bromopyrogallol P—F-phenyl tetramer [AC-1]”, the “Test 2 EC50” value in data set [4] amounted to 4 µg/mL. In addition, the “% inhibition of gp120/CD4 binding” value in data set [5] (Conc 0.39 um) was 48%; in data set [5] (Conc 0.78 um), 55%; in data set [5] (Conc 1.56 um), 62%; in data set [5] (Conc 3.125 um) it was 70%; in data set [5] (Conc 6.25 um) it was 82%; in data set [5] (Conc 12.5 um), 86%. The “% inhibition of gp120/CD4 binding” value in data set [5] (Conc 25 um) is on record as 91%; in data set [5] (Conc 50 um), 93%; in data set [5] (Conc 100 um) it was 96%.
As to `O=C1Nc2ccc(Cl)cc2[C@@](C#CC2CC2)(C(F)(F)F)O1` [Efavirenz], the “SIDE EFFECTS” value in data set [3] is reported as “skin reaction”. In addition, in data set [1], the “REDUCTION IN VIRAL LOAD” value is reported as 50–90%.
Consider `CC(C)c1nc(CN(C)C(=O)N[C@H](C(=O)N[C@@H](Cc2ccccc2)C[C@H](O)[C@H](Cc2ccccc2)NC(=O)OCc2cncs2)C(C)C)cs1` [Ritonavir], for which the “SIDE EFFECTS” value in data set [3] is given as “diarrhoea nausea,”. Further, in data set [1], the “REDUCTION IN VIRAL LOAD” value is 99%.
For the compound `O=c1[nH]cnc2c1ncn2[C@H]1CC[C@@H](CO)O1` [Didanosine], the “SIDE EFFECTS” value in data set [3] is on record as “peripheral neuropathy, nausea vomiting, pancreatis”. Moreover, the “REDUCTION IN VIRAL LOAD” value in data set [1] is recorded as 50–90%.
Turning to `Cc1c(O)cccc1C(=O)N[C@@H](CSc1ccccc1)[C@H](O)CN1C[C@H]2CCCC[C@H]2C[C@H]1C(=O)NC(C)(C)C` [Nelfinavir], the “SIDE EFFECTS” value in data set [3] is recorded as “diarrohea, nausea”. Also, the “REDUCTION IN VIRAL LOAD” value in data set [1] is listed as 99%.

The values are drawn from patent US7338977B2, “Anti-viral compounds” (Aids Care Pharma Limited, priority 2003, dated 2008).
